# PubChem BioAssay (NCI)
# Where “and” joins values, the source holds several entries; their conditions need not be identical. Equal entries are not always repeated.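 Compound exposure: 48 hours, 5 concentrations, 96-well plates. At the GI50, growth is halved. The concentration for full growth arrest is given as TGI.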
# What was measured:
# Assay in all cases: inhibition of tumour cell growth, NCI panel, 48 h
# [1] = tested on: A498 renal
# [2] = tested on: CAKI-1 renal
# [3] = tested on: DU-145 prostate
# [4] = tested on: MCF7 breast
# [5] = tested on: MDA-MB-231 breast
# [6] = tested on: MDA-MB-435
# [7] = tested on: MOLT-4 leukemia
# [8] = tested on: SK-MEL-2 melanoma
# [9] = tested on: SK-MEL-28 melanoma
# [10] = tested on: UACC-62 melanoma
SMILES,GI50 [1],TGI [1],GI50 [2],TGI [2],GI50 [3],TGI [3],GI50 [4],TGI [4],GI50 [5],TGI [5],GI50 [6],TGI [6],GI50 [7],TGI [7],GI50 [8],TGI [8],GI50 [9],TGI [9],GI50 [10],TGI [10]
O=C(c1ccccc1O)c1[nH]c(Cl)c(Cl)c1-n1c(C(=O)c2ccccc2O)cc(Cl)c1Cl,0.231 µM and 0.332 µM,2.04 µM and 2.75 µM,0.425 µM and 0.385 µM,10.6 µM and 3.1 µM,2.25 µM and 1.81 µM,16.3 µM and 16.6 µM,0.407 µM and 0.258 µM,10.6 µM and 10.3 µM,1.07 µM and 0.354 µM,5.87 µM and 2.61 µM,1.87 µM and 1.51 µM,10.6 µM and 10.4 µM,1.7 µM and 0.798 µM,14.4 µM and 5.74 µM,0.335 µM and 1.13 µM,1.41 µM and 5.68 µM,0.844 µM and 0.529 µM,12.3 µM and 11.3 µM,0.495 µM and 0.361 µM,3.34 µM and 2.09 µM
Cc1cc(O)cc(C)c1/C=C/c1cncc(C(=O)OC(C)(C)C)c1,8.09 µM,> 25 µM,12.3 µM,> 25 µM,17 µM,> 25 µM,11.8 µM,> 25 µM,14 µM,> 25 µM,11.6 µM,> 25 µM,15 µM,> 25 µM,> 22.1 µM,> 25 µM,17.9 µM,> 25 µM,17 µM,> 25 µM
COc1cc(NC(C)CCCN)c2ncccc2c1Sc1ccc(Cl)cc1 (stereo not given),3.65 µM,16.2 µM,3.13 µM,12.3 µM,1.85 µM,3.32 µM,1.76 µM,3.19 µM,1.42 µM,2.86 µM,1.86 µM,3.57 µM,1.84 µM,4.16 µM,1.85 µM,3.4 µM,1.83 µM,3.28 µM,1.75 µM,3.33 µM
COc1cc2c(cc1O)C(c1cc(O)c(O)c(OC)c1)C(O)(C(=O)O)C(CO)C2O (stereo not given),,> 100 µM,,> 100 µM,,> 100 µM,,42.5 µM,,> 100 µM,,37 µM,,44.3 µM,,> 100 µM,,> 100 µM,,> 100 µM
Nc1cc2nc3ccccc3oc-2cc1=O,5.44 µM,11.1 µM,15.3 µM,> 53.7 µM,1.57 µM,2.98 µM,1.35 µM,3.33 µM,22.9 µM,> 100 µM,0.516 µM,1.77 µM,10.1 µM,> 63.2 µM,6.62 µM,25.7 µM,1.79 µM,3.45 µM,1.67 µM,3.27 µM
CC1(C)N=C(N)N=C(N)N1c1ccc(Cl)c(Cl)c1,11.2 µM,> 100 µM,12.5 µM,> 100 µM,0.523 µM,> 100 µM,0.388 µM,> 100 µM,> 100 µM,> 100 µM,0.0644 µM,> 100 µM,1.38 µM,> 100 µM,> 100 µM,> 100 µM,11.7 µM,> 100 µM,0.612 µM,> 100 µM
Oc1c2c(c(O)c3ccccc13)C1(N=N2)c2ccccc2Oc2ccccc21,,35.7 µM,,26.5 µM,,37 µM,,13.6 µM,,32.4 µM,,17.9 µM,,> 100 µM,,27.4 µM,,28.8 µM,,25.1 µM
NCCN1C(=O)c2ccccc2C1(O)c1ccc(Cl)cc1 (stereo not given),,27.8 µM,,> 100 µM,,> 100 µM,,32.6 µM,,34.7 µM,,28.6 µM,,38.8 µM,,30.8 µM,,33.2 µM,,30.7 µM
FC(F)(F)c1[nH]ncc1-c1nc2ccc3[nH]ncc3c2c2c1CCCC2,1.17 µM,2.6 µM,1.06 µM,10.4 µM,1.58 µM,10.9 µM,1.67 µM,10.1 µM,1.84 µM,6.19 µM,1.78 µM,9.55 µM,1.29 µM,5.29 µM,1.64 µM,3.61 µM,1.41 µM,4.86 µM,1.02 µM,2.83 µM
CCN(CC)c1ccc(/C=C/C=C(/C#N)C(N)=S)cc1,10.9 µM,58.9 µM,31.8 µM,> 100 µM,3.88 µM,> 100 µM,14.5 µM,> 100 µM,2.11 µM,6.03 µM,5.01 µM,> 100 µM,2.19 µM,12 µM,20.9 µM,> 100 µM,21.2 µM,> 100 µM,15.2 µM,48.8 µM
CC(=O)/C(=C\c1c(-c2ccccc2)[nH]c2ccccc12)S(=O)(=O)c1ccccc1,5.44 µM,15.9 µM,2.43 µM,10.6 µM,2.94 µM,9.31 µM,0.903 µM,9.36 µM,1.74 µM,19.2 µM,0.295 µM,4.14 µM,1.35 µM,6.39 µM,1.39 µM,5.3 µM,1.87 µM,7.02 µM,0.975 µM,4.46 µM
O=c1cc(O)c2c(O)cc(O)cc2o1,,> 100 µM,,> 100 µM,,> 100 µM,,> 100 µM,,> 100 µM,,> 100 µM,,> 100 µM,,> 100 µM,,> 100 µM,,> 100 µM
CC(=O)NC1=C(Sc2ccc(Cl)cc2)C(=O)c2ccccc2C1=O,,16.4 µM,,14.6 µM,,30.5 µM,,5.01 µM,,10.2 µM,,4.56 µM,,1.7 µM,,16 µM,,11.9 µM,,13.3 µM
CCCC#CCOC(=O)c1cc([N+](=O)[O-])cc([N+](=O)[O-])c1,,> 100 µM,,> 100 µM,,> 100 µM,,> 100 µM,,> 100 µM,,> 100 µM,,> 100 µM,,> 100 µM,,> 100 µM,,> 100 µM
CNC(=O)c1cc2c(Oc3ccc(NC(=S)NC(=O)Cc4ccccc4)cc3F)ccnc2cc1OC,1.1 µM,4.35 µM,4.23 µM,> 100 µM,> 31.4 µM,> 100 µM,> 100 µM,> 100 µM,3.87 µM,> 100 µM,> 27.6 µM,> 100 µM,3.47 µM,> 100 µM,> 29.9 µM,> 100 µM,> 100 µM,> 100 µM,3.43 µM,> 100 µM
